Target: T1, Biotinylated KRAS G12C protein (Homo sapiens, UniProt P01116, C118S/C51S/C80L/G12C)
T1 construct: 183 amino acids; biotin on K10
Assay: SOS-catalyzed nucleotide exchange assay
Type: biochemical
Conditions: 10,000 nM; 60 minutes of preincubation prior to addition of SOS
Method: Compounds are added to this complex, and then after 60 minute incubation time the mixture is treated with recombinant SOS protein and unlabeled GTP. Small molecule inhibitors stabilize the Bodipy-GDP complex whereas the untreated protein rapidly exchanges Bodipy-GDP for unlabeled GTP resulting in reduced TR-FRET signal. […] This mixture is then further diluted to 90 nM in an assay buffer (20 mM HEPES, 150 mM sodium chloride, 10 mM magnesium chloride, and 0.005% Tween) containing 15 nM of Terbium-Streptavidin (Invitrogen, catalog #PV3577) and 900 nM of Bodipy-GDP and incubated at room temperature for six hours. […] Each test compound (10 mM stock in DMSO) is diluted in DMSO to make a 10-point, 3-fold dilution series in a 384-well low dead volume microplate (Labcyte, catalog #LP-0200). Once titrations are made, 10 nL of the diluted compounds is acoustically dispensed into a 384-well assay plate (Corning, catalog #3820) using an Echo 550 (Labcyte). […] Each well then receives 3 μL of 240 nM recombinant human SOS protein and 9 mM GTP (Sigma, G8877) in assay buffer and is incubated at room temperature for 60 minutes. The time-resolved fluorescence resonance energy transfer signal for the assay plate is measured on an Envision (PerkinElmer) plate reader: Excitation filter=340 nm; emission1=495 nm; emission2=520 nm; dichroic mirror=D400/D505; delay time=100 μs. The signal of each well is determined as the ratio of the emission at 520 nm to that at 495 nm. […] The apparent effect as a function of compound concentration is fit to a four parameter logistic equation.

T1 sequence (P01116 with tags, fused parts or gaps isoform P01116-2 G12C/C51S/C80L/C118S): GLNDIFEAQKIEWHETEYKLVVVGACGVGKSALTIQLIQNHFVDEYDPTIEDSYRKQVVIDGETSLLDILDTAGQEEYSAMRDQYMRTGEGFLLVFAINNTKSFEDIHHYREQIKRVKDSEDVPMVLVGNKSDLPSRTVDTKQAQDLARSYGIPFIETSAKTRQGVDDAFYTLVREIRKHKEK

Compound	inhibition at 10 µM [%]
C=CC(=O)N1CCN(c2cc(C(=O)NCCCN(C)C)nc3c2CCN(c2cccc4ccccc24)C3)CC1 [Compound 4, 4-(4-acryloylpiperazin-1-yl)-N-(3-(dimethylamino)propyl)-7-(naphthalen-1-yl)-5,6,7,8-tetrahydro-1,7-naphthyridine-2-carboxamide]	23
C=CC(=O)N1CCN(c2cc(C(=O)NC(CC(C)C)CN(C)C)nc3c2CCN(c2cccc4cccc(C)c24)C3)CC1 (racemic) [Compound 20, rac-4-(4-acryloylpiperazin-1-yl)-N-(1-(dimethylamino)-4-methylpentan-2-yl)-7-(8-methylnaphthalen-1-yl)-5,6,7,8-tetrahydro-1,7-naphthyridine-2-carboxamide]	30

Other lines, results leading:

inhibition at 10 µM [%]	Compound
37	C=CC(=O)N1CCN(c2cc(C(=O)NCC(C)(C)CN(C)C)nc3c2CCN(c2cccc4cccc(C)c24)C3)CC1 [Compound 22, 4-(4-acryloylpiperazin-1-yl)-N-(3-(dimethylamino)-2,2-dimethylpropyl)-7-(8-methylnaphthalen-1-yl)-5,6,7,8-tetrahydro-1,7-naphthyridine-2-carboxamide]
36	C=CC(=O)N1CCN(c2cc(C(=O)N(C)C3CCN(C)C3)nc3c2CCN(c2cccc4cccc(C)c24)C3)CC1 (racemic) [Compound 51, rac-4-(4-acryloylpiperazin-1-yl)-N-methyl-7-(8-methylnaphthalen-1-yl)-N-(1-methylpyrrolidin-3-yl)-5,6,7,8-tetrahydro-1,7-naphthyridine-2-carboxamide]
16	C=CC(=O)N1CCN(c2cc(C(=O)NC(C)(C)CN(C)C)nc3c2CCN(c2cccc4cccc(C)c24)C3)CC1 [Compound 17, 4-(4-acryloylpiperazin-1-yl)-N-(1-(dimethylamino)-2-methylpropan-2-yl)-7-(8-methylnaphthalen-1-yl)-5,6,7,8-tetrahydro-1,7-naphthyridine-2-carboxamide]

Same assay, conditions: apparent potency; preincubation time of 60 minutes prior to addition of SOS

Compound	IC50 [nM]
C=CC(=O)N1CCN(c2cc(C(=O)NCCC3CCCN3C)nc3c2CCN(c2cccc4cccc(C)c24)C3)CC1 (racemic) [Compound 57, rac-4-(4-acryloylpiperazin-1-yl)-7-(8-methylnaphthalen-1-yl)-N-(2-(1-methylpyrrolidin-2-yl)ethyl)-5,6,7,8-tetrahydro-1,7-naphthyridine-2-carboxamide]	3410
C=CC(=O)N1CCN(c2cc(C(=O)N3CCC[C@@H]3CN3CCCC3)nc3c2CCN(c2cccc4cccc(C)c24)C3)CC1 [Compound 42, (R)-1-(4-(7-(8-methylnaphthalen-1-yl)-2-(2-(pyrrolidin-1-ylmethyl)pyrrolidine-1-carbonyl)-5,6,7,8-tetrahydro-1,7-naphthyridin-4-yl)piperazin-1-yl)prop-2-en-1-one]	3770
C=CC(=O)N1CCN(c2cc(C(=O)N3CCCCC3CN3CCCC3)nc3c2CCN(c2cccc4cccc(C)c24)C3)CC1 (racemic) [Compound 46, rac-1-(4-(7-(8-methylnaphthalen-1-yl)-2-(2-(pyrrolidin-1-ylmethyl)piperidine-1-carbonyl)-5,6,7,8-tetrahydro-1,7-naphthyridin-4-yl)piperazin-1-yl)prop-2-en-1-one]	8880
C=CC(=O)N1CCN(c2cc(C(=O)N3CCC[C@H]3CN3CCCC3)nc3c2CCN(c2cccc4cccc(C)c24)C3)CC1 [Compound 41, (S)-1-(4-(7-(8-methylnaphthalen-1-yl)-2-(2-(pyrrolidin-1-ylmethyl)pyrrolidine-1-carbonyl)-5,6,7,8-tetrahydro-1,7-naphthyridin-4-yl)piperazin-1-yl)prop-2-en-1-one]	9590
C=CC(=O)N1CCN(c2cc(C(=O)N3CCCC3CN3CCCCC3)nc3c2CCN(c2cccc4cccc(C)c24)C3)CC1 (racemic) [Compound 44, rac-1-(4-(7-(8-methylnaphthalen-1-yl)-2-(2-(piperidin-1-ylmethyl)pyrrolidine-1-carbonyl)-5,6,7,8-tetrahydro-1,7-naphthyridin-4-yl)piperazin-1-yl)prop-2-en-1-one]	7870
C=CC(=O)N1CCN(c2cc(C(=O)N[C@H]3CCC[C@@H]3N3CCOCC3)nc3c2CCN(c2cccc4cccc(C)c24)C3)CC1 (racemic) [Compound 34, rac-4-(4-acryloylpiperazin-1-yl)-7-(8-methylnaphthalen-1-yl)-N-(trans-2-morpholinocyclopentyl)-5,6,7,8-tetrahydro-1,7-naphthyridine-2-carboxamide]	3570
C=CC(=O)N1CCN(c2cc(C(=O)NCCCN(C)C)nc3c2CCN(c2cccc4ccccc24)C3)CC1 [Compound 4, 4-(4-acryloylpiperazin-1-yl)-N-(3-(dimethylamino)propyl)-7-(naphthalen-1-yl)-5,6,7,8-tetrahydro-1,7-naphthyridine-2-carboxamide]	9400
C=CC(=O)N1CCN(c2cc(C(=O)N[C@@H]3[C@H](N)CCCC3(F)F)nc3c2CCN(c2cccc4cccc(C)c24)C3)C[C@@H]1CC#N [Compound 95, 4-((S)-4-acryloyl-3-(cyanomethyl)piperazin-1-yl)-N-((1R,6R)-6-amino-2,2-difluorocyclohexyl)-7-(8-methylnaphthalen-1-yl)-5,6,7,8-tetrahydro-1,7-naphthyridine-2-carboxamide]	793
C=CC(=O)N1CCN(c2cc(C(=O)NCC3CCCN(C)C3)nc3c2CCN(c2cccc4cccc(C)c24)C3)CC1 (racemic) [Compound 56, rac-4-(4-acryloylpiperazin-1-yl)-7-(8-methylnaphthalen-1-yl)-N-((1-methylpiperidin-3-yl)methyl)-5,6,7,8-tetrahydro-1,7-naphthyridine-2-carboxamide]	3650

Other lines, results leading:

IC50 [nM]	Compound
9150	C=CC(=O)N1CCN(c2cc(C(=O)NC3CCN(C)CC3)nc3c2CCN(c2cccc4cccc(C)c24)C3)CC1 [Compound 54, 4-(4-acryloylpiperazin-1-yl)-7-(8-methylnaphthalen-1-yl)-N-(1-methylpiperidin-4-yl)-5,6,7,8-tetrahydro-1,7-naphthyridine-2-carboxamide]
1520	C=CC(=O)N1CCN(c2cc(C(=O)N[C@H]3COC[C@@H]3N)nc3c2CCN(c2cccc4cccc(C)c24)C3)CC1 (racemic) [Compound 36, rac-4-(4-acryloylpiperazin-1-yl)-N-(trans-4-aminotetrahydrofuran-3-yl)-7-(8-methylnaphthalen-1-yl)-5,6,7,8-tetrahydro-1,7-naphthyridine-2-carboxamide]
3180	C=CC(=O)N1CCN(c2cc(C(=O)NC(C)CCN(C)C)nc3c2CCN(c2cccc4cccc(C)c24)C3)CC1 (racemic) [Compound 21, rac-4-(4-acryloylpiperazin-1-yl)-N-(4-(dimethylamino)butan-2-yl)-7-(8-methylnaphthalen-1-yl)-5,6,7,8-tetrahydro-1,7-naphthyridine-2-carboxamide]
1590	C=CC(=O)N1CCN(c2cc(C(=O)N[C@@H]3CCC[C@H]3N(C)C)nc3c2CCN(c2cccc4ccccc24)C3)CC1 (racemic) [Compound 7, rac-4-(4-acryloylpiperazin-1-yl)-N-(trans-2-(dimethylamino)cyclo-pentyl)-7-(naphthalen-1-yl)-5,6,7,8-tetrahydro-1,7-naphthyridine-2-carboxamide]
4470	C=CC(=O)N1CCN(c2cc(C(=O)N[C@H]3COC[C@@H]3N(C)C)nc3c2CCN(c2cccc4cccc(C)c24)C3)CC1 (racemic) [Compound 32, rac-4-(4-acryloylpiperazin-1-yl)-N-(trans-4-(dimethylamino)tetrahydro-furan-3-yl)-7-(8-methylnaphthalen-1-yl)-5,6,7,8-tetrahydro-1,7-naphthyridine-2-carboxamide]
4770	C=CC(=O)N1CCN(c2cc(C(=O)N[C@@H]3C[C@@H]3N)nc3c2CCN(c2cccc4cccc(C)c24)C3)CC1 (racemic) [Compound 38, rac-4-(4-acryloylpiperazin-1-yl)-N-(cis-2-aminocyclopropyl)-7-(8-methylnaphthalen-1-yl)-5,6,7,8-tetrahydro-1,7-naphthyridine-2-carboxamide]
426	C=CC(=O)N1CCN(c2cc(C(=O)N[C@@H]3CCCC[C@H]3N)nc3c2CCN(c2cccc4cccc(C)c24)C3)CC1 [Compound 31, 4-(4-acryloylpiperazin-1-yl)-N-((1R,2R)-2-aminocyclohexyl)-7-(8-methylnaphthalen-1-yl)-5,6,7,8-tetrahydro-1,7-naphthyridine-2-carboxamide]
3570	C=CC(=O)N1CCN(c2cc(C(=O)N[C@@H]3CCN(C)C3)nc3c2CCN(c2cccc4cccc(C)c24)C3)CC1 [Compound 50, (R)-4-(4-acryloylpiperazin-1-yl)-7-(8-methylnaphthalen-1-yl)-N-(1-methylpyrrolidin-3-yl)-5,6,7,8-tetrahydro-1,7-naphthyridine-2-carboxamide]
3540	C=CC(=O)N1CCN(c2cc(C(=O)NC3CCCC(N(C)C)C3)nc3c2CCN(c2cccc4cccc(C)c24)C3)CC1 (racemic) [Compound 40, rac-(cis,trans)-4-(4-acryloylpiperazin-1-yl)-N-(3-(dimethylamino)cyclohexyl)-7-(8-methylnaphthalen-1-yl)-5,6,7,8-tetrahydro-1,7-naphthyridine-2-carboxamide]
